Article PMC7228089, “Odiparcil, a potential glycosaminoglycans clearance therapy in mucopolysaccharidosis VI—Evidence from in vitro and in vivo models” (PLoS ONE, 2020)
Where “and” joins values, the source holds several entries; their conditions need not be identical. Equal values may be shown once. Read-outs that look alike come from different tables or passages of the source.

Experiments:
Arsb^- mice = assay: Cartilage thickness in trachea and distal femoral growth plate (histology); assay type: in vivo
Method: MPS VI model nonsense mutation Arsb^m1J homozygous mice (referred to as Arsb^- throughout the manuscript) and WT littermates were obtained from internal breeding of stock mice derived from The Jackson Laboratory strain No: 005598 (C57BL/6J-Arsb^m1J/GrsrJ). Genotyping and Arsb^m1J mutation identification were performed according to the protocol provided by The Jackson Laboratory. Each study group contained mix of male and female: 6 animals in disease progression studies and between 8 and 12 animals in odiparcil treatment studies.
Housing conditions. The animals were housed in groups of 3–10 (for mice) or 2 (for rats) in polypropylene cages (floor area = 1032 cm^2) under standard conditions: room temperature (22 ± 2°C), hygrometry (55 ± 10%), light/dark cycle (12h/12h), air replacement (15–20 volumes/hour), water and food ad libitum. Mice were allowed to habituate for at least 5 days prior to experimentation. Mice were numbered by marking their tail using indelible markers. For the early disease model (treatment starting in juvenile, 4 weeks old mice), odiparcil administration in the weeks 1 to 6 was done per gavage with odiparcil in Methylcellulose 400 cps 1% / Poloxamer 188 0.1% / Water, freshly prepared every week. Later on, administration was per chow diet with odiparcil mixed before diet granulation. […]

[1] = Odiparcil tissue exposure after repeated oral dosing (LC-MS/MS); assay type: in vivo, Sprague Dawley rats; conditions: rat
Method: Sprague Dawley rats were orally administered with odiparcil for 5-days, three times a day (t.i.d) with a 25 mg/kg/dose as a suspension in Methylcellulose 400 cps 1% / Poloxamer 188 0.1% / Water. On day 5, only one dose was administered and tissues–bone from head of femurs and cartilage also from head of femurs, cornea and heart–were collected at 30 min post-dosing, 3 animals per sample. Tissues were snap-frozen immediately after collection and stored at -20°C until odiparcil quantification by LC-MS/MS. Non compartmental method was applied with Phoenix WinNonLin® to estimate the Cmax and AUC parameters. Tissue partition coefficient (Kp) was calculated on AUC values (AUC tissue / AUC plasma). Moreover, Kp for the heart was corrected for the significant blood content (26%) while it was not corrected for bone, cartilage and cornea.

[2] = tested on: MPS VI patient fibroblasts GM00538; assay: Number of cultured cells (viability) during odiparcil treatment; assay type: cell-based, human; conditions: different odiparcil concentrations, growing and confluent conditions
Method: Primary skin fibroblasts from MPS VI patients GM00538 and GM02572 were obtained from the NIGMS Human Genetic Cell Repository at the Coriell Institute for Medical Research. Cell culturing was done according to the conditions provided by the Coriell Institute. For evaluation of the effect of odiparcil, cells were seeded in 96 well imaging plates (Falcon Cat N 353219) and two types of treatment were evaluated: i) prophylactic conditions—cells were treated with odiparcil before reaching confluence, 24 hours after plating; and ii) curative conditions—cells were treated with odiparcil after reaching confluence (10 days culturing). Cells were treated by odiparcil added to the culture media. This was done by replacing the initial culture media by media containing 0.1% DMSO with or without odiparcil (at 0.01, 0.03, 0.1, 0.3, 1, 3 and 10 μM). For treatment, the cells were incubated for 72 hours at 37°C, 5% CO2. All experimental conditions were performed in triplicate, i.e., 3 wells/test condition.
After odiparcil treatment as described above, culture media were removed to be used for dimethylmethylene blue (DMMB) assay and the cells were fixed in PFA 4%. Immunofluorescent staining was done following standard protocol comprising permeabilization with 0.1% Triton X 100, blocking with 2% NGS, staining with primary antibody and staining with secondary antibody and Hoechst (for nuclei visualization). […]

Which results are given for `Cc1cc(=O)oc2cc(O[C@@H]3SC[C@@H](O)[C@H](O)[C@H]3O)ccc12` [Odiparcil, 4-methyl-7-(5-thio-β-D-xylopyranosyloxy)-2 H-chromen-2-one]?
Cartilage thickening in trachea and distal femoral growth plate (Arsb^- mice; Arsb^- mice, early and established disease models, 6 months of treatment): dose-dependent reduction of cartilage thickening; Cartilage thickness in wild type animals (Arsb^- mice; wild type mice, early disease treatment model, only distal femoral growth plate, significant only for the high dose): Some decrease in the thickness of cartilage; Cmax ([1]; Sprague-Dawley, bone (head of femurs), po, 25 mg/kg, bone (head of femurs), oral 25 mg/kg/dose t.i.d. 5 days, read-out: Cmax (converted)): 1310 ng/g; Cmax ([1]; Sprague-Dawley, bone (head of femurs), po, 25 mg/kg, bone, oral 25 mg/kg/dose t.i.d. 5 days, read-out: Cmax (converted)): 4 µM; Kp at 120 h ([1]; Sprague-Dawley, bone (head of femurs), po, 25 mg/kg, bone, oral 25 mg/kg/dose t.i.d. 5 days, read-out: Kp AUC (AUC tissue / AUC plasma)): 0.18; Kp ([1]; Sprague-Dawley, bone, cartilage, cornea, po, 25 mg/kg/dose, bone, cartilage and cornea together, repeated oral dosing, read-out: AUC Kp): ~0.15; Cmax ([1]; Sprague-Dawley, bone, cartilage, cornea, po, 25 mg/kg/dose, span over bone, cartilage and cornea, repeated oral dosing, read-out: Cmax (converted)): 500 ng/g to 1300 ng/g and 1.7 µM to 4 µM; Cmax ([1]; Sprague-Dawley, cartilage (head of femurs), po, 25 mg/kg, cartilage (head of femurs), oral 25 mg/kg/dose t.i.d. 5 days, read-out: Cmax (converted)): 1100 ng/g; Cmax ([1]; Sprague-Dawley, cartilage (head of femurs), po, 25 mg/kg, cartilage, oral 25 mg/kg/dose t.i.d. 5 days, read-out: Cmax (converted)): 3.4 µM; Kp at 120 h ([1]; Sprague-Dawley, cartilage (head of femurs), po, 25 mg/kg, cartilage, oral 25 mg/kg/dose t.i.d. 5 days, read-out: Kp AUC (AUC tissue / AUC plasma)): 0.12; Cmax ([1]; Sprague-Dawley, cornea, po, 25 mg/kg, cornea, oral 25 mg/kg/dose t.i.d. 5 days, read-out: Cmax (converted)): 535 ng/g and 1.7 µM; Kp at 120 h ([1]; Sprague-Dawley, cornea, po, 25 mg/kg, cornea, oral 25 mg/kg/dose t.i.d. 5 days, read-out: Kp AUC (AUC tissue / AUC plasma)): 0.12; Kp at 120 h ([1]; Sprague-Dawley, heart, po, 25 mg/kg, heart, corrected for blood content (26%), oral 25 mg/kg/dose t.i.d. 5 days, read-out: blood corrected Kp AUC): ~0.44; Kp at 120 h ([1]; Sprague-Dawley, heart, po, 25 mg/kg, heart, not blood corrected, oral 25 mg/kg/dose t.i.d. 5 days, read-out: Kp AUC (AUC tissue / AUC plasma)): 0.69; Cmax ([1]; Sprague-Dawley, heart, po, 25 mg/kg, heart, oral 25 mg/kg/dose t.i.d. 5 days, read-out: Cmax (converted)): ~4600 ng/g and ~14.3 µM; Cmax ([1]; Sprague-Dawley, plasma, po, 25 mg/kg, plasma, oral 25 mg/kg/dose t.i.d. 5 days, 30 min after last administration, read-out: Cmax (converted)): ~7300 ng/mL; Cmax ([1]; Sprague-Dawley, plasma, po, 25 mg/kg, plasma, oral 25 mg/kg/dose t.i.d. 5 days, read-out: Cmax (converted)): ~22.5 µM; AUC ([1]; Sprague-Dawley, plasma, oral 25 mg/kg/dose t.i.d. 5 days, read-out: AUC (converted)): 14800 ng·h/mL; AUC ([1]; bone, oral 25 mg/kg/dose t.i.d. 5 days): 2 646 ng.h/g; AUC ([1]; cartilage, oral 25 mg/kg/dose t.i.d. 5 days): 1 805 ng.h/g; AUC ([1]; cornea, oral 25 mg/kg/dose t.i.d. 5 days): 1 737 ng.h/g; AUC ([1]; heart, oral 25 mg/kg/dose t.i.d. 5 days): 10 203 ng.h/g; Cmax ([1]; plasma, oral 25 mg/kg/dose t.i.d. 5 days, 30 min after last administration, 25 mg/kg): 7 297 ng/mL; Effect on viability of the cells (number of cells) [2]: no effect on viability of the cells
